This is an account of results in ChEMBL document CHEMBL5465560, “Selectivity Literature for EUbOPEN Chemogenomic Library” (2024).

Test [1] concerns the target Muscarinic acetylcholine receptor M3 (Homo sapiens, UniProt P20309). Briefly: Selectivity interaction (Panel of non-epigenetic targets (kinases, GPCRs, ion channels, and transporters, Eurofins) ) EUB0000271b CHRM3. The note with it: at 1 µM.
Test [2] has as its target T1, Serine/threonine-protein kinase LATS1 (Homo sapiens) (UniProt O95835).
T1 sequence (whole entry): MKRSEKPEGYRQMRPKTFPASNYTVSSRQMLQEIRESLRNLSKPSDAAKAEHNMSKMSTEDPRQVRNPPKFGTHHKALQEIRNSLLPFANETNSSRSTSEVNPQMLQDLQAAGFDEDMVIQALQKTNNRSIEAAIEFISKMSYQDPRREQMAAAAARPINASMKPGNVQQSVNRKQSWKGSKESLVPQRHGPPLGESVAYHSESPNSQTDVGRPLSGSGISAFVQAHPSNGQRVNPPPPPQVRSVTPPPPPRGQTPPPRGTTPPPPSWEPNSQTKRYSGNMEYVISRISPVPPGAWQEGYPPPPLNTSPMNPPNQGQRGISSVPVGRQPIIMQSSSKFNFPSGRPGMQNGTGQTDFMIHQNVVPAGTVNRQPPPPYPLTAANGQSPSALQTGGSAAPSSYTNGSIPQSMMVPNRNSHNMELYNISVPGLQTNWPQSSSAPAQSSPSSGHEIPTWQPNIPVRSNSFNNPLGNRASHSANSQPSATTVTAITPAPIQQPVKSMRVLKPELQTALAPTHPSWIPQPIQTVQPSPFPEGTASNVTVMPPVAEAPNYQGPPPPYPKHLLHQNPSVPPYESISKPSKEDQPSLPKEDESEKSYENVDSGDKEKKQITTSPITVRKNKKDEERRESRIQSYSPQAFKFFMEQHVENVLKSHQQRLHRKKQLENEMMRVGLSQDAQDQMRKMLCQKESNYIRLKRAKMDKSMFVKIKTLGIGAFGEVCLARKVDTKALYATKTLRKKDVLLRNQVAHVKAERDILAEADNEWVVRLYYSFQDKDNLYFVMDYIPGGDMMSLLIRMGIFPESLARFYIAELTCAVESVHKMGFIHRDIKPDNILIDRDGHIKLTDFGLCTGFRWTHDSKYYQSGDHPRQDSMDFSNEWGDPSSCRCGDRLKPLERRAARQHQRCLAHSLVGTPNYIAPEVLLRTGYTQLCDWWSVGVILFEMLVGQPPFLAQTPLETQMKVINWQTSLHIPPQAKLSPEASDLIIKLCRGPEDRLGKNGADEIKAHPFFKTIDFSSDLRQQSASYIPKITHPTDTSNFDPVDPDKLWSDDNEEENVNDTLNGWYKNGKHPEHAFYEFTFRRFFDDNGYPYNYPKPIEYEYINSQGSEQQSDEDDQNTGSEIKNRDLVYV
Kind of test: Selectivity interaction (KinomeScan (DiscoverX)) EUB0000607a LATS1. As to conditions: at 10 µM.

In test [3] the target is T2, Serine/threonine-protein kinase ULK3 (Homo sapiens) (UniProt Q6PHR2).
T2 sequence (whole entry): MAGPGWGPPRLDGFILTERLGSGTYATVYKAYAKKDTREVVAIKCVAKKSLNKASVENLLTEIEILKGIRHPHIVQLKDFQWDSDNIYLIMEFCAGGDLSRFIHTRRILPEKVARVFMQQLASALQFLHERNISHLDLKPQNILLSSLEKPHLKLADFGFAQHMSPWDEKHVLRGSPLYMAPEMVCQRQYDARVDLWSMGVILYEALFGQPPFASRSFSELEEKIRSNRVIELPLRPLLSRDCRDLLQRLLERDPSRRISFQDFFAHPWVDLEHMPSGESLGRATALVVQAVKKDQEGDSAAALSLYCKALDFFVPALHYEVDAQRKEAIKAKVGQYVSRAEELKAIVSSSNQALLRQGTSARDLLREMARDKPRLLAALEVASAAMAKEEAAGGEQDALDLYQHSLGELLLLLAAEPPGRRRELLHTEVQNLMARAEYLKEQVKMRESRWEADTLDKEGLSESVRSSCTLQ
Briefly: Selectivity interaction (KinomeScan (DiscoverX)) EUB0000607a ULK3. As to conditions: at 10 µM.

Test [4] has as its target Ephrin type-A receptor 7 (Homo sapiens) (UniProt Q15375). Kind of test: Selectivity interaction (KinomeScan (DiscoverX)) EUB0000666a EPHA7. As to conditions: at 10 µM.
Test [5] addresses TRAF2 and NCK-interacting protein kinase (Homo sapiens) (UniProt Q9UKE5). Kind of test: Selectivity interaction (KinomeScan (DiscoverX)) EUB0000229b TNIK. As to conditions: at 10 µM.
Test [6] concerns the target Casein kinase I isoform epsilon (Homo sapiens, UniProt P49674). The note with it: at 10 µM.
Test [7] concerns the target Calcium/calmodulin-dependent protein kinase type 1D (Homo sapiens) (UniProt Q8IU85). Briefly: Selectivity interaction (KinomeScan (DiscoverX)) EUB0001049a CAMK1D. The note with it: at 1 µM.
Test [8] has as its target T3, Myosin light chain kinase (Homo sapiens) (UniProt Q32MK0).
T3 sequence (whole entry): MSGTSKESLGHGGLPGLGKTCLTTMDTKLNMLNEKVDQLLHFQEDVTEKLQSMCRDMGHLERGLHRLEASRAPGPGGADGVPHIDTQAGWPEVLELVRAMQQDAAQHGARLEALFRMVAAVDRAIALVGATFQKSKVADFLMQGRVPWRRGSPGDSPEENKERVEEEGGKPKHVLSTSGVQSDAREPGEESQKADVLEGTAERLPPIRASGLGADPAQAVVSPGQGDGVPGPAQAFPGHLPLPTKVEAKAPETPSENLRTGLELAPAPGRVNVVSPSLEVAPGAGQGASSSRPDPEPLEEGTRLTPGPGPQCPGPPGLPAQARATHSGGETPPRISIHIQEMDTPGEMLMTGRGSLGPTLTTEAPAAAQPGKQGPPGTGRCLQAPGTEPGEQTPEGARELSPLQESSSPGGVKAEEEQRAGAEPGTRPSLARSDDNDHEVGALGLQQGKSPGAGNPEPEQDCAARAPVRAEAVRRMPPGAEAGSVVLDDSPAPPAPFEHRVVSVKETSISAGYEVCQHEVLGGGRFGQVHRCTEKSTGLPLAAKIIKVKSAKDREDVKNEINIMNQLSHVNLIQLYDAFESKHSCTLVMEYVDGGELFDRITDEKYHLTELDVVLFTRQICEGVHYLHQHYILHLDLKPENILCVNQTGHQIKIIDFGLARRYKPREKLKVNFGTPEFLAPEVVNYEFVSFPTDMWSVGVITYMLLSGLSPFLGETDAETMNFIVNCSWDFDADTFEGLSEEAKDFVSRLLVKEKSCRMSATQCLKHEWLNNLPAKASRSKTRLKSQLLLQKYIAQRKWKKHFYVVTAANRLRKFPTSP
Briefly: Selectivity interaction (KinomeScan (DiscoverX)) EUB0000695a MYLK3. The note with it: at 100 nM.

Test [9] has as its target Serine/threonine-protein kinase 32B (Homo sapiens) (UniProt Q9NY57). Kind of test: Selectivity interaction (KinomeScan (DiscoverX)) EUB0000092b STK32B. As to conditions: at 10 µM.

Sequence of TRAF2 and NCK-interacting protein kinase (Homo sapiens) (Q9UKE5 whole entry, looked up, canonical isoform): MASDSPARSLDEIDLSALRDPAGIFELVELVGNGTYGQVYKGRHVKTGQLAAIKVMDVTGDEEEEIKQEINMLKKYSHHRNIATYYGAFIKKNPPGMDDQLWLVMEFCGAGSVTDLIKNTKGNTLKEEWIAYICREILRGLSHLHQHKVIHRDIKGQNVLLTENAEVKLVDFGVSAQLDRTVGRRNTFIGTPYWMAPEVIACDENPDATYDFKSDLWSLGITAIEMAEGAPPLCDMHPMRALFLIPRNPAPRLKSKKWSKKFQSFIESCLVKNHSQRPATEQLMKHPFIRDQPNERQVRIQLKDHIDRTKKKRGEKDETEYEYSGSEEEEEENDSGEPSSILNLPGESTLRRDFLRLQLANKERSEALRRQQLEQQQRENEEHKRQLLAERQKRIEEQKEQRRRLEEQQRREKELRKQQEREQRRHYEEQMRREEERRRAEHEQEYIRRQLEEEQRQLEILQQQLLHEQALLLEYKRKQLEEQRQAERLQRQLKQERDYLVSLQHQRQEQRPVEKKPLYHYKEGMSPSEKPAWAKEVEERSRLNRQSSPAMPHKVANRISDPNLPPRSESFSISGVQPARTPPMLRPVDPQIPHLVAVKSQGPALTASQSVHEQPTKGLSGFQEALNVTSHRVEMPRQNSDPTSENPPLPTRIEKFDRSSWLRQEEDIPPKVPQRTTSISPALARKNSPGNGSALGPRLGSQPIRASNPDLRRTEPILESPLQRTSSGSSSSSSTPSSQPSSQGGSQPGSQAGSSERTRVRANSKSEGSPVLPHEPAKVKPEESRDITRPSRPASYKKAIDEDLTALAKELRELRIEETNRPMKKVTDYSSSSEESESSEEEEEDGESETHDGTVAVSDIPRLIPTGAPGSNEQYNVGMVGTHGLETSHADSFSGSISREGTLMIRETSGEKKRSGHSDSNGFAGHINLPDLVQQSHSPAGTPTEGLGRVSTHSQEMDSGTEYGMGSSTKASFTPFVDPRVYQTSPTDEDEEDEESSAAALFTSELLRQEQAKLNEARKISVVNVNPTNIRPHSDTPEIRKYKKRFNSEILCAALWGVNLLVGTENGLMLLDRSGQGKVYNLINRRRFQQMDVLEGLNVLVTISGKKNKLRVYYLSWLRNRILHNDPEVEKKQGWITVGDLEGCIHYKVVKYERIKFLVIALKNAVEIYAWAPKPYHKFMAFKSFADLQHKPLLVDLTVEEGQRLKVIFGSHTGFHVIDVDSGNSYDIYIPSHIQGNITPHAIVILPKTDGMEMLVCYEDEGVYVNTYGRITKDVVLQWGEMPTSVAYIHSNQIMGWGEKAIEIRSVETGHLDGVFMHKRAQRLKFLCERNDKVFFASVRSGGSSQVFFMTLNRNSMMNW
Sequence of Casein kinase I isoform epsilon (P49674 whole entry, looked up, canonical isoform): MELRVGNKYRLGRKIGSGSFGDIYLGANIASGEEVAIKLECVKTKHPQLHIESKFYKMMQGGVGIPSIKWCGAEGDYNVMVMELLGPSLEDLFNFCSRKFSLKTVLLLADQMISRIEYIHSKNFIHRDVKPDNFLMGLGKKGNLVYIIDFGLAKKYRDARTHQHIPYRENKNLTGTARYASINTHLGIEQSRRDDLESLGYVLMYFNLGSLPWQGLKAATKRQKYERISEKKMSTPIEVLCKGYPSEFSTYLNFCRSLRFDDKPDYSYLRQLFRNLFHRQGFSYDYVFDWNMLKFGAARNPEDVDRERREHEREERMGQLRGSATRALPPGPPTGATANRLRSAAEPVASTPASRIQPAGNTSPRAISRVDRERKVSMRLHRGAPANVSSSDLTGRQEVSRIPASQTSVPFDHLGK
Sequence of Muscarinic acetylcholine receptor M3 (P20309 whole entry, looked up): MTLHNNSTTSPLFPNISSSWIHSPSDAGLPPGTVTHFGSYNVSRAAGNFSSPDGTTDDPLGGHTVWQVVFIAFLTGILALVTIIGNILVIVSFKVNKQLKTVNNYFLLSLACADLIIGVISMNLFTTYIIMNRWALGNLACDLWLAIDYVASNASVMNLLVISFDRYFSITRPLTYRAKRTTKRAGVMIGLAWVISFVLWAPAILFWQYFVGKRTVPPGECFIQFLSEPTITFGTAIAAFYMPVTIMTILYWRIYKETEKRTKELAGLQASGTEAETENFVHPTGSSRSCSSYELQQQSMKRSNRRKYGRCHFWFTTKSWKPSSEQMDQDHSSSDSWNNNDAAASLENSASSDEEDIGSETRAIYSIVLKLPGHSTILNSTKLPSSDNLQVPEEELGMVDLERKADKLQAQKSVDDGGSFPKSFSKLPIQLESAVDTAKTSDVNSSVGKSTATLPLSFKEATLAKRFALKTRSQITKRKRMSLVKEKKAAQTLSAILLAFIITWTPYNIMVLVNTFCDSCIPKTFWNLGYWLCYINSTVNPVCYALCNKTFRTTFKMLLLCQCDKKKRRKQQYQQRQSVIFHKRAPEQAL
Sequence of Calcium/calmodulin-dependent protein kinase type 1D (Homo sapiens) (Q8IU85 whole entry, looked up): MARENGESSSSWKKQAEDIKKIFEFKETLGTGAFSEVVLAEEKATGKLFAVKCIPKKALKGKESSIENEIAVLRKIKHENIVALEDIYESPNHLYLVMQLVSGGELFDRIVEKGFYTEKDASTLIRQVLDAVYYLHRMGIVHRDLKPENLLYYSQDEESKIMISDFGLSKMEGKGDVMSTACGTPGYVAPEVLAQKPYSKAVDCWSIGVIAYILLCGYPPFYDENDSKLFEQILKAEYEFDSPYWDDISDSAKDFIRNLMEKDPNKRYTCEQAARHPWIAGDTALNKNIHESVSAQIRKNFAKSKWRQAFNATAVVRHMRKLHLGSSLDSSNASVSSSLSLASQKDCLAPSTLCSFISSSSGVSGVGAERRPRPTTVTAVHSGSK
Sequence of Ephrin type-A receptor 7 (Homo sapiens) (Q15375 28-998 limits assumed): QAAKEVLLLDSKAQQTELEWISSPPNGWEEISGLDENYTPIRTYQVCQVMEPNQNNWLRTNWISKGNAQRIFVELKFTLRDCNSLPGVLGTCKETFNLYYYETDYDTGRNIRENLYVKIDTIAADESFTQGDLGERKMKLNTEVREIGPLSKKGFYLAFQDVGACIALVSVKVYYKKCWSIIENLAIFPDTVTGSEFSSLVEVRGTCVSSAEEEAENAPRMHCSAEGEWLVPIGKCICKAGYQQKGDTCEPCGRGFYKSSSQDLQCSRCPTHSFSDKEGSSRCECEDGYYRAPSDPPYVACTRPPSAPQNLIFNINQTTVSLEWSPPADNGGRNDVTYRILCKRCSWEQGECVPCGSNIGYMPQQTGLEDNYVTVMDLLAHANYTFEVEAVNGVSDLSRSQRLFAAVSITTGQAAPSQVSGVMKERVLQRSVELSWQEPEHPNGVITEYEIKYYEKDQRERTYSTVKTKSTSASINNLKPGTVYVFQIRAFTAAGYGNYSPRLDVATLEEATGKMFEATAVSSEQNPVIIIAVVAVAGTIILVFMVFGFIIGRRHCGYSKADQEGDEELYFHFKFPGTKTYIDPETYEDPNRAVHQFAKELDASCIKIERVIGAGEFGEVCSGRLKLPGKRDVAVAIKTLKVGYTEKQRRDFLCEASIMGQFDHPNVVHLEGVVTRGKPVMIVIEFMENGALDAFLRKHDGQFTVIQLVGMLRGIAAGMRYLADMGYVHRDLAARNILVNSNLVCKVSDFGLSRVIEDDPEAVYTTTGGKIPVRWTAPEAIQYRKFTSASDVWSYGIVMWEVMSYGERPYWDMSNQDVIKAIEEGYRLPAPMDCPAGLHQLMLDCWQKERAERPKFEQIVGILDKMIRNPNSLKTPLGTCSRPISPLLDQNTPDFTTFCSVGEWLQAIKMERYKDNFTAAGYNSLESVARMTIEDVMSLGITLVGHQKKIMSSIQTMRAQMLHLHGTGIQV
Sequence of Serine/threonine-protein kinase 32B (Homo sapiens) (Q9NY57 whole entry): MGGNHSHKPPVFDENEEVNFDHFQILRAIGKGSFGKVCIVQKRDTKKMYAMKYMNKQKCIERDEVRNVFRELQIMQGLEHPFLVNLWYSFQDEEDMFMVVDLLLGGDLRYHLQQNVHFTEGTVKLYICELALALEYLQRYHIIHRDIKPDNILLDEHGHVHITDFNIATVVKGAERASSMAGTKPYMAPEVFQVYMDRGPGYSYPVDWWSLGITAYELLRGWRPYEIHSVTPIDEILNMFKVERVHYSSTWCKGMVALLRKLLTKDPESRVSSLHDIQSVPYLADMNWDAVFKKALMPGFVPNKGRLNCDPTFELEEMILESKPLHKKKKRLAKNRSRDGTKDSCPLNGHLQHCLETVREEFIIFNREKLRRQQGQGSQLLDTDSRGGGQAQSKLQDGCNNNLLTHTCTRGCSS

Compound `Cc1cc(C)cc([C@@H]2c3cc(C)ccc3NC(=O)CN2C(=O)c2ccc(Br)s2)c1` displayed a % of inhibition in [1] of 12%.
As to `CNC(=O)Nc1ccc(-c2nc(N3CC4CCC(C3)O4)c3cnn(C4CCC5(CC4)OCCO5)c3n2)cc1`, the values for the % of control in test [2] and in test [3] were 95% and 92%, respectively.
Take `O=C(NOC[C@H](O)CO)c1ccc(F)c(F)c1Nc1ccc(I)cc1F`: the % of control in test [4] was 94%.
In test [5], `COc1cc(N(C)c2ccnc3ccc(C(F)(F)F)cc23)cc(OC)c1OC` came in with a % binding of 69%.
On to `CCN(CC)CCCCNc1ncc2cc(-c3cc(OC)cc(OC)c3)c(NC(=O)NC(C)(C)C)nc2n1`, for which, in [6], the % of control is 100%.
For `COc1cc(Nc2nc(C)cc(-c3cnn4nc(OC)ccc34)n2)cc(C(F)(F)F)c1`, the % of control in [7] was found to be 84%.
For the compound `Cc1cc(F)c(C(=O)Nc2cccc(-c3nncn3C(C)C)n2)cc1-n1cnc(C2CC2)c1`, in test [8], the % of control was 100%.
`CCC(=O)N1CCN(c2ccc(-n3c(=O)ccc4cnc5ccc(-c6cnc7ccccc7c6)cc5c43)cc2C(F)(F)F)CC1` yielded a % of control in [9] of 87%.
